Results as given in patent US20110071158A1, “NEW COMPOUNDS” (BOEHRINGER INGELHEIM INTERNATIONAL GMBH, priority 2009, published 2011).

The compounds below were run against T1, PTK2 enzyme (Homo sapiens, UniProt Q05397) (assay: PTK2 enzyme test, Assay 1 (DELFIA, poly-Glu-Tyr substrate, antibody PT60)). Conditions: Assay 1 (values without *); 1 h pre-incubation, 2% DMSO.
T1 construct: purchased Invitrogen PV3832
Type: biochemical
Protocol: This test uses active PTK2 enzyme (Invitrogen Code PV3832) and poly-Glu-Tyr (4:1, Sigma P-0275) as the kinase substrate. The kinase activity is detected through the phosphorylation of the substrate in a DELFIA™ assay. The phosphorylated substrate is detected with the europium-labelled phosphotyrosine antibody PT60 (Perkin Elmer, No.: AD00400).
In order to determine concentration-activity curves with PTK2-inhibitors the compounds are serially diluted in 10% DMSO/H2O and 10 μL of each dilution are placed in each well of a 96-well microtitre plate (clear plate with a U-shaped base, Greiner No. 650101) (the inhibitors are tested in duplicates) and mixed with 10 μL/well of PTK2 kinase (0.01 μg/well). PTK2 kinase has been correspondingly diluted beforehand with kinase dilution buffer (20 mM TRIS/HCl pH 7.5, 0.1 mM EDTA, 0.1 mM EGTA, 0.286 mM sodium orthovanadate, 10% glycerol with the addition of freshly prepared BSA (fraction V, 1 mg/mL) and DTT (1 mM)). The test compound and the PTK2 kinase are pre-incubated for 1 h at RT and shaken at 500 revolutions per min. The reaction is started by the addition of 10 μL/well poly (Glu,Tyr) substrate (25 μg/well poly (Glu, Tyr), 0.05 μg/well biotinylated poly (Glu,Tyr) dissolved in 250 mM TRIS/HCl pH 7.5, 9 mM DTT)—the final concentration of DMSO is 2%. Then 20 μL of ATP Mix (30 mM TRIS/HCl pH 7.5, 0.02% Brij, 0.2 mM sodium orthovanadate, 10 mM magnesium acetate, 0.1 mM EGTA, 1× phosphatase inhibitor cocktail 1 (Sigma, No.: P2850), 50 μM ATP (Sigma, No.: A3377; 15 mM stock solution)) are added. After 1 h of kinase reaction (the plates are shaken at 500 rpm), the reaction is stopped by the addition of 12 μL/well 100 mM EDTA, pH 8.0 and shaken for a further 5 min at RT (500 rpm). 55 μL of the reaction mixture are transferred into a streptavidin plate (Strepta Well High Bind (transparent, 96-well) made by Roche, No.: 11989685001) and incubated for 1 h at RT (shaking at 500 rpm). Then the microtitre plate is washed three times with 200 μL/well D-PBS (Invitrogen, No. 14190). 100 μL of a solution containing DELFIA Eu-N1 Anti-Phosphotyrosine PT60 antibody (Perkin Elmer, No.: AD0040, diluted 1:2000 in DELFIA test buffer (Perkin Elmer, No.: 1244-111)) is then added and the mixture is incubated for 1 h at RT (shaking at 500 rpm). Then the plate is washed three times with 200 μL/well DELFIA washing buffer (Perkin Elmer, No.: 1244-114), 200 μL/well strengthening solution (Perkin Elmer, No.: 1244-105) are added and the mixture is incubated for 10 min at RT (shaking at 300 rpm).
The time-delayed europium fluorescence is then measured in a microtitre plate reader (VICTOR^3, Perkin Elmer). […] Wells that contain test buffer instead of enzyme are used as a control of the background kinase activity.
The IC50 values are determined from analyses of the concentration activity by iterative calculation with the aid of a sigmoid curve analysis algorithm (FIFTY, based on Graph PAD Prism Version 3.03) with a variable Hill coefficient.

T1 sequence (Q05397 whole entry): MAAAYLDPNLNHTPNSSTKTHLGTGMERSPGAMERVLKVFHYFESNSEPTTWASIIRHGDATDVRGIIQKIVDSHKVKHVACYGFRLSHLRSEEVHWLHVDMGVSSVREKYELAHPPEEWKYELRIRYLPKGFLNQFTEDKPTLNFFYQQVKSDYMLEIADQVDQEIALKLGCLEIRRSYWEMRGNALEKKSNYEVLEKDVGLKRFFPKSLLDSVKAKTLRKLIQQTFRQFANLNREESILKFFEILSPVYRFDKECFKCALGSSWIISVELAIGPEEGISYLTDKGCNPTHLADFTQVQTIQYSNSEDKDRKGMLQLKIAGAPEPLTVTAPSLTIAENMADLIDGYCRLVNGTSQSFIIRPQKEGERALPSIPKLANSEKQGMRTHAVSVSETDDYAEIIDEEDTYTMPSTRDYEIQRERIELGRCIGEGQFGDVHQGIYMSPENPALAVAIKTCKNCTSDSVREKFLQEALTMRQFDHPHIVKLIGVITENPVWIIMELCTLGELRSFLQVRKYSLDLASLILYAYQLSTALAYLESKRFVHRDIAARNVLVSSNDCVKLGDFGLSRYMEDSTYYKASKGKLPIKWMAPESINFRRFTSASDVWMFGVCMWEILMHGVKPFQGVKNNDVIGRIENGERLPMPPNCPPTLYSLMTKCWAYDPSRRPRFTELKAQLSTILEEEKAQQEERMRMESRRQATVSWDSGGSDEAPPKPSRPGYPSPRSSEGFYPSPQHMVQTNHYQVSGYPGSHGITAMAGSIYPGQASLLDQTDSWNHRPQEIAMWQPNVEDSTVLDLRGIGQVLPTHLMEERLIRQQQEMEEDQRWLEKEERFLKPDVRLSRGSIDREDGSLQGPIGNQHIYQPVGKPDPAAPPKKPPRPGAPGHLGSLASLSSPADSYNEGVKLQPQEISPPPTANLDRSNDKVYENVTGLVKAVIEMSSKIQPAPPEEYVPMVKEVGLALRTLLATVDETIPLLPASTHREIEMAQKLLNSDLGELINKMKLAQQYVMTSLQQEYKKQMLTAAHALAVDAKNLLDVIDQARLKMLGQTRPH

Point of comparison: `CNCc1ccc(Nc2ncc(C(F)(F)F)c(N[C@@H]3CCCC[C@H]3NC(=O)C(C)C)n2)c(OC)c1` [Example I-79], IC50 3 nM. Against it:
- CCN1CCC(NC(=O)c2ccc(Nc3ncc(Br)c(N[C@@H]4CCCC[C@H]4NC(C)=O)n3)c(OC)c2)CC1 [Example I-51] — 3-fold lower, 1 nM
- COCCNC(=O)c1ccc(Nc2ncc(Br)c(N[C@@H]3CCCC[C@H]3NC(C)=O)n2)c(OC)c1 [Example I-52] — 1.5-fold lower, 2 nM
- COc1ccccc1Nc1ncc(Br)c(N[C@@H]2CCCC[C@H]2NC(C)=O)n1 [Example I-53] — 2.7-fold higher, 8 nM
- COc1ccc(Nc2ncc(Br)c(N[C@@H]3CCCC[C@H]3NC(C)=O)n2)c(OC)c1 [Example I-54] — within 1.5-fold, 4 nM
- COc1cc(C(=O)NC2CCN(C3CC3)CC2)ccc1Nc1ncc(Br)c(N[C@@H]2CCCC[C@H]2NC(C)=O)n1 [Example I-55] — 1.5-fold lower, 2 nM
- CNC(=O)c1ccc(Nc2ncc(Cl)c(N[C@@H]3CCCC[C@H]3NC(C)=O)n2)c(OC)c1 [Example I-56] — the same, 3 nM
- COc1cc(C(=O)N(C)C)ccc1Nc1ncc(Cl)c(N[C@@H]2CCCC[C@H]2NC(C)=O)n1 [Example I-57] — 8.7-fold higher, 26 nM
- CCNC(=O)c1ccc(Nc2ncc(Cl)c(N[C@@H]3CCCC[C@H]3NC(C)=O)n2)c(OC)c1 [Example I-58] — the same, 3 nM
- COc1cc(C(=O)NCCN(C)C)ccc1Nc1ncc(Cl)c(N[C@@H]2CCCC[C@H]2NC(C)=O)n1 [Example I-59] — 3-fold lower, 1 nM
- COc1cc(C(=O)NC2CCOCC2)ccc1Nc1ncc(Cl)c(N[C@@H]2CCCC[C@H]2NC(C)=O)n1 [Example I-60] — the same, 3 nM
- CCN1CCC(NC(=O)c2ccc(Nc3ncc(Cl)c(N[C@@H]4CCCC[C@H]4NC(C)=O)n3)c(OC)c2)CC1 [Example I-61] — 3-fold lower, 1 nM
- COc1cc(C(=O)NC2CCCN(C)C2)ccc1Nc1ncc(Cl)c(N[C@@H]2CCCC[C@H]2NC(C)=O)n1 (stereo partly drawn) [Example I-62] — 3-fold lower, 1 nM
- COc1cc(C(=O)NC2CCN(C3CC3)CC2)ccc1Nc1ncc(Cl)c(N[C@@H]2CCCC[C@H]2NC(C)=O)n1 [Example I-63] — the same, 3 nM
- COc1cc(C(=O)NC2CCN(C)CC2)ccc1Nc1ncc(Cl)c(N[C@@H]2CCCC[C@H]2NC(C)=O)n1 [Example I-64] — 3-fold lower, 1 nM
- COCCNC(=O)c1ccc(Nc2ncc(Cl)c(N[C@@H]3CCCC[C@H]3NC(C)=O)n2)c(OC)c1 [Example I-65] — the same, 3 nM
- COc1cc(C(=O)NC2CCN(C)CC2)ccc1Nc1ncc(C(F)(F)F)c(N[C@@H]2CCCC[C@H]2NC(=O)CN2CCN(C)CC2)n1 [Example I-66] — 67-fold higher, 200 nM
- COc1ccc(Nc2ncc(Cl)c(N[C@@H]3CCCC[C@H]3NC(C)=O)n2)c(OC)c1 [Example I-67] — 3.3-fold higher, 10 nM
- COc1cc(C(=O)NC2CCN(C)CC2)ccc1Nc1ncc(C(F)(F)F)c(N[C@@H]2CCCC[C@H]2NC(=O)CN2CCOCC2)n1 [Example I-68] — 67-fold higher, 200 nM
- COc1ccc(Nc2ncc(C(F)(F)F)c(N[C@@H]3CCCC[C@H]3NC(=O)CC(C)C)n2)c(OC)c1 [Example I-70] — 150-fold higher, 440 nM
- CCN1CCC(NC(=O)c2ccc(Nc3ncc(C(F)(F)F)c(N[C@@H]4CCCC[C@H]4N(C)C(C)=O)n3)c(OC)c2)CC1 [Example I-71] — 3.3-fold higher, 10 nM
- COc1cc(C(=O)N(C)C)ccc1Nc1ncc(C(F)(F)F)c(N[C@@H]2CCCC[C@H]2N(C)C(C)=O)n1 [Example I-72] — 10-fold higher, 31 nM
- COc1cc(C(=O)NCCN(C)C)ccc1Nc1ncc(C(F)(F)F)c(N[C@@H]2CCCC[C@H]2N(C)C(C)=O)n1 [Example I-73] — 3.2-fold lower, 0.95 nM
- COc1cc(C(=O)NC2CCCN(C)C2)ccc1Nc1ncc(C(F)(F)F)c(N[C@@H]2CCCC[C@H]2N(C)C(C)=O)n1 (stereo partly drawn) [Example I-74] — 3-fold lower, 1 nM
- CNCc1ccc(Nc2ncc(C(F)(F)F)c(N[C@@H]3CCCC[C@H]3NC(=O)C3CCC3)n2)c(OC)c1 [Example I-75] — the same, 3 nM
- CNCc1ccc(Nc2ncc(C(F)(F)F)c(N[C@@H]3CCCC[C@H]3NC(C)=O)n2)c(OC)c1 [Example I-76] — 3-fold lower, 1 nM
- CCC(=O)N[C@@H]1CCCC[C@H]1Nc1nc(Nc2ccc(CNC)cc2OC)ncc1C(F)(F)F [Example I-77] — 1.5-fold lower, 2 nM
- CNCc1ccc(Nc2ncc(C(F)(F)F)c(N[C@@H]3CCCC[C@H]3NC(=O)COC)n2)c(OC)c1 [Example I-78] — within 1.5-fold, 4 nM
- COc1cc(C(=O)NC2CCN(C)CC2)ccc1Nc1ncc(C(F)(F)F)c(N[C@@H]2CCCC[C@H]2N(C)C(=O)C(C)C)n1 [Example I-80] — 3-fold higher, 9 nM
- CCC(=O)N(C)[C@@H]1CCCC[C@H]1Nc1nc(Nc2ccc(C(=O)NC3CCN(C)CC3)cc2OC)ncc1C(F)(F)F [Example I-81] — the same, 3 nM
- COc1cc(C(=O)NC2CCN(C)CC2)ccc1Nc1ncc(C(F)(F)F)c(N[C@@H]2CCCC[C@H]2N(C)C(C)=O)n1 [Example I-82] — 3.1-fold lower, 0.98 nM
- COc1cc(C(=O)NC2CCN(C)CC2)ccc1Nc1ncc(C(F)(F)F)c(N[C@@H]2CCCC[C@H]2N(C)C(=O)C2CC2)n1 [Example I-83] — within 1.5-fold, 4 nM
- COc1cc(C(=O)NC2CCN(C)CC2)ccc1Nc1ncc(C(F)(F)F)c(N[C@@H]2CCCC[C@H]2N(C)C(=O)C2CCC2)n1 [Example I-84] — 12-fold higher, 37 nM
- CNC(=O)c1cc(OC)c(Nc2ncc(C(F)(F)F)c(N[C@@H]3CCCC[C@H]3NC(C)=O)n2)cc1F [Example I-85] — 1.5-fold lower, 2 nM
- COc1cc(C(=O)NC2CCOCC2)c(F)cc1Nc1ncc(C(F)(F)F)c(N[C@@H]2CCCC[C@H]2NC(C)=O)n1 [Example I-86] — 2.3-fold higher, 7 nM
- CCN1CCC(NC(=O)c2cc(OC)c(Nc3ncc(C(F)(F)F)c(N[C@@H]4CCCC[C@H]4NC(C)=O)n3)cc2F)CC1 [Example I-87] — 1.5-fold lower, 2 nM
- COc1cc(C(=O)NC2CCCN(C)C2)c(F)cc1Nc1ncc(C(F)(F)F)c(N[C@@H]2CCCC[C@H]2NC(C)=O)n1 (stereo partly drawn) [Example I-88] — 1.5-fold lower, 2 nM
- COc1cc(C(=O)O)ccc1Nc1ncc(C(F)(F)F)c(N[C@@H]2CCCC[C@H]2NC(C)=O)n1 [Example I-89] — 3-fold higher, 9 nM
- COC(=O)N(C)[C@@H]1CCCC[C@H]1Nc1nc(Nc2ccc(C(=O)NC3CCN(C)CC3)cc2OC)ncc1C(F)(F)F [Example I-95] — 2.3-fold higher, 7 nM
- COc1cc(C(=O)NC2CCN(C)CC2)ccc1Nc1ncc(C(F)(F)F)c(N[C@@H]2CCCC[C@H]2N2CCCC2=O)n1 [Example I-97] — 1.5-fold lower, 2 nM
- CCN(C(C)=O)[C@@H]1CCCC[C@H]1Nc1nc(Nc2ccc(C(=O)NC3CCN(C)CC3)cc2OC)ncc1C(F)(F)F [Example I-99] — the same, 3 nM
- COc1cc(N2CCN(C)CC2)ccc1Nc1ncc(C(F)(F)F)c(N[C@@H]2CCCC[C@H]2N(C)C(C)=O)n1 [Example I-101] — 1.5-fold lower, 2 nM
- COc1cc(C(=O)NC2CCN(C)CC2)ccc1Nc1ncc(C(F)(F)F)c(N[C@@H]2CCCC[C@H]2N(CC2CC2)C(C)=O)n1 [Example I-103] — 2.3-fold higher, 7 nM
- COc1cc(C(=O)NC2CCN(C)CC2)ccc1Nc1ncc(C(F)(F)F)c(N[C@@H]2CCC[C@@H]2NC(C)=O)n1 [Example I-105] — 13-fold higher, 38 nM
- COc1cc(C(=O)N[C@H]2CCCN(C)C2)ccc1Nc1ncc(C(F)(F)F)c(N[C@@H]2CCCC[C@H]2N(C)C(C)=O)n1 [Example I-107] — 3-fold lower, 1 nM
- COc1cc(C(=O)NC2CCC(N(C)C)CC2)ccc1Nc1ncc(C(F)(F)F)c(N[C@@H]2CCCC[C@H]2N(C)C(C)=O)n1 (stereo partly drawn) [Example I-108] — 3-fold lower, 1 nM
- COc1cc(C(=O)NC2CCN(C(C)C)CC2)ccc1Nc1ncc(C(F)(F)F)c(N[C@@H]2CCCC[C@H]2N(C)C(C)=O)n1 [Example I-109] — 3-fold lower, 1 nM
- COCCNC(=O)c1ccc(Nc2ncc(C(F)(F)F)c(N[C@@H]3CCCC[C@H]3N(C)C(C)=O)n2)c(OC)c1 [Example I-110] — 1.5-fold lower, 2 nM
- COc1cc(C(=O)N[C@@H]2CCCN(C)C2)ccc1Nc1ncc(C(F)(F)F)c(N[C@@H]2CCCC[C@H]2N(C)C(C)=O)n1 [Example I-111] — 3-fold lower, 1 nM
- COc1cc(C(=O)NCCCN(C)C)ccc1Nc1ncc(C(F)(F)F)c(N[C@@H]2CCCC[C@H]2N(C)C(C)=O)n1 [Example I-112] — 3-fold lower, 1 nM
- CON[C@H]1CCCC[C@H]1Nc1nc(Nc2ccc(C(=O)NC3CCN(C)CC3)cc2OC)ncc1C(F)(F)F [Example I-113] — 1.7-fold higher, 5 nM
